Assay results: patent US11897902B1, “Nano-sized mixed ligand [4-bromo-2-(quinolin-2-yliminomethyl)-phenol imine- phenanthroline] Ru(III) complex for medicinal applications” (KING FAISAL UNIVERSITY, priority 2023, dated 2024)
In brackets after ≈: the same amount, converted by molar mass.

Columns and labels:
Type in all cases: cell-based
[1] = system: Aspergillus flavus; test: Antifungal activity, well diffusion method (inhibition zone, MIC)
Experimental: To evaluate antimicrobial activity, the fungal strain (Aspergillus flavus), was used. These strains were cultured in nutrient agar and Muller-Hinton medium. Fluconazole compound was used as a standard drug for comparison.
Antifungal activities of the prepared nano-complex were studied against three fungal cultures using well diffusion method. The tested fungi were inoculated in Sabouraud dextrose broth medium (Hi-Media Mumbai) and incubated at 35° C. for 72 h and subsequently a suspension of about 1.60×10^4-6.00×10^4 c.f.u/ml was introduced agar plates and a sterile glass spreader was used for even distribution of the inoculum. The discs measuring 6 mm in diameter were prepared from Whatman No. 1 filter paper and sterilized by dry heat at 140° C. for 1 h. The sterile discs previously soaked in known concentration of the tested compounds were placed in Sabouraud dextrose Agar (SDA) plates. The plates were inverted and incubated at 35° C. for 7 days. The susceptibility was assessed on the basis of diameter of inhibition against albicans and non-albicans strain of fungi.

[2] = system: Escherichia coli(−ve); test: Antimicrobial activity, agar well diffusion (inhibition zone, MIC); settings: E. coli
Experimental: To evaluate antimicrobial activity, the bacterial strain Escherichia coli(−ve), was used. These strains were cultured in a nutrient agar and Muller-Hinton medium. Ofloxacin compound was used as a standard drug for comparison.
The susceptibilities of such growth rate of microorganisms were measured in vitro by agar well diffusion method. The tested nano complex was dissolved in dimethyl sulfoxide at different concentrations (10 and 20 mg/ml). 1 cm^3 of a 24 h broth culture containing 10^6 CFU/cm^3 was placed in sterile Petri-dishes. Molten nutrient agar (15 cm 3) maintained at 45° C. was then poured into the Petri-dishes and allowed to solidify. Then holes of 6 mm diameter were formed in the agar using a sterile cork borer and these holes were completely filled with the test solutions. The plates were incubated for 24 h at 37° C. After the incubation period, the zone of inhibition of each well was determined by measuring the zones of growth inhibition (mm) against the test microorganisms with zone reader (Hi Antibiotic zone scale). […] The measurements were made in triplicate for each compound and their average values are reported.

[3] = system: Breast cancer cells line; test: Cytotoxic activity, Sulfo-Rhodamine-B-stain (SRB); settings: Homo sapiens, breast cancer cell line, 48 hours
Experimental: The anticancer activity was made at the National Cancer Institute, Cancer Biology Department, Pharmacology Department, Cairo University. The absorbance or optical density (O.D.) of each well was measured spectrophotometrically at 564 (nm) with an “ELIZA” micro plate reader (Meter tech. Σ960, “USA”). Evaluation of the cytotoxic activity of the prepared nano-complex was carried out against Breast cancer cells line. The evaluation process was carried out in vitro using the Sulfo-Rhodamine-B-stain (SRB). Cells were placed in 96-multiwell plate (10^4 cells/well) for 24 hours before processing with the complexes to allow attachment of cell to the wall of the plate. Various concentrations of the compounds under test in DMSO (0, 1, 2.5, 5 and 10 μM) were added to the cell monolayer. Monolayer cells were incubated with the complexes for 48 hours at 37° C. and in atmosphere of 5% CO2. After 48 hours, cells were fixed, rinsed, and stained with Sulfo-Rhodamine-B-stain. Excess stain was washed with acetic acid and attached stain was treated with Tris EDTA buffer. Color intensity was measured in an ELISA reader. IC50 was evaluated and potency was calculated with regard to percentage of change of (vistabline standard). The relation between surviving fraction and compound concentration is plotted to get the survival curve of each tumor cell line after the specified compound. […]

**Q.** `OC(Cn1cncn1)(Cn1cncn1)c1ccc(F)cc1F` [Fluconazol, Fluconazole] was tested. Which MIC [1] did it give?
**A.** Its MIC is 2 µg/mL (≈ 6.53 µM).

**Q.** What about the inhibition zone ([1]; well diffusion, 35° C. for 7 days) of the same compound?
**A.** Its inhibition zone is 24 mm.

**Q.** How did the inhibition zone ([2]; agar well diffusion, 24 h at 37° C.) turn out when `CC1COc2c(N3CCN(C)CC3)c(F)cc3c(=O)c(C(=O)O)cn1c23` (centres unmarked) [Ofloxacin] was run?
**A.** The inhibition zone was 35 mm.

**Q.** What about the MIC ([2]; Escherichia coli) of the same compound?
**A.** The MIC was 2.5 µg/mL (≈ 6.92 µM).

**Q.** `CC[C@]1(O)C[C@@H]2CN(CCc3c([nH]c4ccccc34)[C@@](C(=O)OC)(c3cc4c(cc3OC)N(C)[C@H]3[C@@](O)(C(=O)OC)[C@H](OC(C)=O)[C@]5(CC)C=CCN6CC[C@]43[C@@H]65)C2)C1` [vinblastine] was tested. Which IC50 [3] did it give?
**A.** Its IC50 is 4.5 µg/mL (≈ 5.55 µM).
